The results in this text go back to patent US11780851B2, “LRRK2 inhibitors” (H. Lundbeck A/S, priority 2021, dated 2023).

In one data set the target is T1, LRRK2 WT (Homo sapiens, UniProt Q5S007).
T1 construct: comprises residue 970 to 2527 of the full length human wild-type LRRK2 kinase; purchased Invitrogen (Life Technologies Corporation)
Description: LRRK2 wild-type kinase activity assay (LanthaScreen TR-FRET). To be noted: 1 nM LRRK2 WT, 1.3 mM ATP, 3.5 h at 30° C.; n≥2 tests. The class given is biochemical. Put shortly: (§1)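 TR-FRET measured phosphorylation of fluorescein-ERM LRRKtide by human LRRK2 residues 970–2527, wild-type or G2019S, detected with a terbium anti-phospho-LRRKtide antibody. The 520/495 nm ratio was normalized to uninhibited and inhibitor controls. IC50 came from a Hill fit, log-averaged over independent experiments.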
In general terms: In TR-FRET formats the signal depends on donor and acceptor labels being close together.

The next data set deals with T2, LRRK2 G2019S (Homo sapiens, UniProt Q5S007, G2019S).
T2 construct: purchased Invitrogen (Life Technologies Corporation)
Description: LRRK2 G2019S kinase activity assay (LanthaScreen TR-FRET). Format: biochemical. Conditions: 250 pM LRRK2 G2019S, 1.3 mM ATP, 3 h at 30° C.; n≥2 tests. Put shortly: as §1

A further data set is described as follows: GSH adduct screening. Format: in vitro ADME, human. Conditions: 1 μM, 3 h at 37° C., HLM 0.5 mg/mL, NADPH, with and without GSH. The procedure:
Test compounds (final concentration 1 μM, 0.25% organic) were incubated for 3 h at 37° C. in commercially sourced, pooled donor, human liver microsomes (HLM, final concentration 0.5 mg/mL) with and without addition of glutathione (GSH; final concentration […]). The metabolic reaction was initiated by addition of microsomal solution to the mixture of cofactor NADPH (final concentration 1 mM), test compound and GSH. After 3 h of incubation in a water bath at 37° C., the reaction was stopped by addition of 0.2% formic acid in acetonitrile, followed by mixing and centrifugation (16000 g for 5 minutes). Supernatant was diluted (1:1) with HPLC water then analyzed by liquid chromatography (LC)-quadrupole time-of-flight mass spectrometry (QTOF-MS). Accurate mass MS and MS/MS spectra from samples with GSH and without GSH, respectively, were compared to identify detectable GSH and/or cysteine related adducts.

“Also recorded” adds a separate entry of the source.

T2 sequence (Q5S007 970-2527 G2019S): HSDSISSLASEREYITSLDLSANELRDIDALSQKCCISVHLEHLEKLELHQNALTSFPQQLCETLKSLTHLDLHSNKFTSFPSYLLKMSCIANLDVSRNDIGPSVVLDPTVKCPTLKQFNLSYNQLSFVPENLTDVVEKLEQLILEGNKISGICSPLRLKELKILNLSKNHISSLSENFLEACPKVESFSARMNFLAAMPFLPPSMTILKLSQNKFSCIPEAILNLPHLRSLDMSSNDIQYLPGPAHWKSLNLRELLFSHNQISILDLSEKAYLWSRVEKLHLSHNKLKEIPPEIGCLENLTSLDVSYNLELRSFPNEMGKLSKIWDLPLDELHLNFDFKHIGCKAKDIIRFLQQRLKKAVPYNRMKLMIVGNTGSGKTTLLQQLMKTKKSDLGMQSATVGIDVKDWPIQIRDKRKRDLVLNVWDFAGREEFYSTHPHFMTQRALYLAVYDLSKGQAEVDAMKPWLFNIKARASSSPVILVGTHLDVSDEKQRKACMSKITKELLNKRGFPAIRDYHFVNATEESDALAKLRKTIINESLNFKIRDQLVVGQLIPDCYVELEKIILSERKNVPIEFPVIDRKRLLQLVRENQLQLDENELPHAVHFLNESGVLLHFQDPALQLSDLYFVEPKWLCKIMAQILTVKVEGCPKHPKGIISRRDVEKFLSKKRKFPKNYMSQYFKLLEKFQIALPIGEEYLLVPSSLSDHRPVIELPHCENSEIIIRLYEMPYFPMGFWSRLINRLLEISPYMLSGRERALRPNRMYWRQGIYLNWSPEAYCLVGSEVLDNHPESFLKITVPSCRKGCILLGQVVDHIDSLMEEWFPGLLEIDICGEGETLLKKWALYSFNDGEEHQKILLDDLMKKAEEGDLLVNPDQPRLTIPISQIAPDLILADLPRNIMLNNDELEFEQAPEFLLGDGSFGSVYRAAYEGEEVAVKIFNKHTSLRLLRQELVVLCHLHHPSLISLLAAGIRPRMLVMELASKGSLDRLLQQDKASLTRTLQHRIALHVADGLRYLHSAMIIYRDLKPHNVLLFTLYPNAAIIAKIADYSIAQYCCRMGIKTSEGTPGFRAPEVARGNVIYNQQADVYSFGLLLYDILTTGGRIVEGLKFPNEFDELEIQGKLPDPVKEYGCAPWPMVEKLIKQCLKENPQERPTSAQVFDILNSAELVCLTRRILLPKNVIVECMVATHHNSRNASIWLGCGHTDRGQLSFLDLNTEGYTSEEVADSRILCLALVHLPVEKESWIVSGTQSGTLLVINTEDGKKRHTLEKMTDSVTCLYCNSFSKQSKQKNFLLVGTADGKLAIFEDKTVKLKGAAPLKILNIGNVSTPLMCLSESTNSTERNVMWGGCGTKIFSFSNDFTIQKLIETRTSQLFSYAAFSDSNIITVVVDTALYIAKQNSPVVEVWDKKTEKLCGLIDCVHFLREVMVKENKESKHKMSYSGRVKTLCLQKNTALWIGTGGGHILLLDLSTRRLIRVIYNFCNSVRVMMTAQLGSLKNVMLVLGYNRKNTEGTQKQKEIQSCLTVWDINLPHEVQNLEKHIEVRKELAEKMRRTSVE
T1 sequence (Q5S007 970-2527): as the sequence (Q5S007 970-2527 G2019S) above, with S1050G counted along it

A word on the IC50: it is the concentration that gives 50% inhibition. As for `[2H]C([2H])([2H])c1c2c(nn1C1CCOCC1)OCCCn1nc(Cl)c3cnc(nc31)N2` [Example 13, 8-Chloro-3-(methyl-d3)-2-(tetrahydro-2H-pyran-4-yl)-2,4,12,13-tetrahydro-11H-5,7-(azenometheno)dipyrazolo[3,4-b:5′,1′-g][1]oxa[4,6,8]triazacycloundecine], the IC50 came to 9.6 nM at LRRK2 WT and 2.5 nM on LRRK2 G2019S. In addition, the “Adduct detected in GSH supplemented HLMs” value in “GSH adduct screening” is reported as “did not form GSH adduct; also recorded: None detected”.
